According to the CheMixHub ionic liquid set:
± gives the uncertainty stated by the source.

Assay: xn = mol fraction of the nth substance listed
Settings: 100 kPa

CCCCCC[n+]1ccc(C)cc1.[Br-] + CO/N=C(\C(=O)N[C@@H]1C(=O)N2C(C(=O)[O-])=C(CSc3nc(=O)c(=O)[n-]n3C)CS[C@H]12)c1csc(N)n1.[Na+].[Na+] + O
viscosity [mPa·s]
Settings	288.15 K	293.15 K	298.15 K	303.15 K	308.15 K
x2 = 0, x1 = 0.0007045	1.172 ± 0.048	1.028 ± 0.042	0.913 ± 0.038	0.817 ± 0.034	0.738 ± 0.03
x2 = 0, x1 = 0.001062	1.183 ± 0.049	1.039 ± 0.043	0.924 ± 0.038	0.824 ± 0.034	0.746 ± 0.031
x2 = 0, x1 = 0.001422	1.195 ± 0.049	1.05 ± 0.043	0.934 ± 0.038	0.834 ± 0.034	0.753 ± 0.031
x2 = 0.00034, x1 = 0.0007042	1.221 ± 0.05	1.065 ± 0.044	0.947 ± 0.039	0.847 ± 0.035	0.764 ± 0.031
x2 = 0.0008651, x1 = 0.0007039	1.316 ± 0.054	1.152 ± 0.047	1.019 ± 0.042	0.911 ± 0.037	0.818 ± 0.034
x2 = 0.0008655, x1 = 0.001061	1.322 ± 0.054	1.159 ± 0.048	1.029 ± 0.042	0.917 ± 0.038	0.826 ± 0.034
x2 = 0.0008696, x1 = 0.001421	1.338 ± 0.055	1.172 ± 0.048	1.038 ± 0.043	0.923 ± 0.038	0.831 ± 0.034
x2 = 0.001399, x1 = 0.0007035	1.412 ± 0.058	1.233 ± 0.051	1.092 ± 0.045	0.974 ± 0.04	0.875 ± 0.036
x2 = 0.001401, x1 = 0.00142	1.432 ± 0.059	1.255 ± 0.052	1.116 ± 0.046	0.991 ± 0.041	0.888 ± 0.037
x2 = 0.001409, x1 = 0.00106	1.418 ± 0.058	1.244 ± 0.051	1.1 ± 0.045	0.98 ± 0.04	0.881 ± 0.036
x2 = 0.001955, x1 = 0.001419	1.545 ± 0.064	1.353 ± 0.056	1.2 ± 0.05	1.062 ± 0.044	0.951 ± 0.039
x2 = 0.001966, x1 = 0.0007031	1.521 ± 0.062	1.329 ± 0.055	1.178 ± 0.048	1.047 ± 0.043	0.938 ± 0.039
x2 = 0.00197, x1 = 0.00106	1.534 ± 0.063	1.34 ± 0.055	1.184 ± 0.049	1.054 ± 0.043	0.946 ± 0.039
x2 = 0.00252, x1 = 0.0007027	1.641 ± 0.068	1.432 ± 0.059	1.264 ± 0.052	1.125 ± 0.046	1.01 ± 0.042
x2 = 0.002559, x1 = 0.001419	1.685 ± 0.069	1.47 ± 0.061	1.302 ± 0.054	1.143 ± 0.047	1.03 ± 0.042
x2 = 0.003119, x1 = 0.0007023	1.784 ± 0.073	1.555 ± 0.064	1.369 ± 0.056	1.216 ± 0.05	1.088 ± 0.045
x2 = 0.003144, x1 = 0.001058	1.807 ± 0.074	1.572 ± 0.065	1.398 ± 0.058	1.231 ± 0.051	1.098 ± 0.045
x2 = 0.003161, x1 = 0.001418	1.832 ± 0.076	1.592 ± 0.066	1.412 ± 0.058	1.242 ± 0.051	1.112 ± 0.046
x2 = 0.003971, x1 = 0.0007017	2.011 ± 0.083	1.751 ± 0.072	1.539 ± 0.063	1.363 ± 0.056	1.216 ± 0.05
x2 = 0.003978, x1 = 0.001417	2.065 ± 0.085	1.788 ± 0.074	1.585 ± 0.065	1.387 ± 0.057	1.243 ± 0.051
x2 = 0.004835, x1 = 0.0007011	2.288 ± 0.094	1.987 ± 0.082	1.737 ± 0.072	1.534 ± 0.063	1.365 ± 0.056
x2 = 0.004866, x1 = 0.001415	2.36 ± 0.097	2.033 ± 0.084	1.798 ± 0.074	1.567 ± 0.065	1.394 ± 0.057
x2 = 0.00487, x1 = 0.001057	2.329 ± 0.096	2.011 ± 0.083	1.772 ± 0.073	1.556 ± 0.064	1.379 ± 0.057
x2 = 0.005535, x1 = 0.0007006	2.55 ± 0.11	2.197 ± 0.091	1.919 ± 0.079	1.69 ± 0.07	1.499 ± 0.062
x2 = 0.005568, x1 = 0.001056	2.58 ± 0.11	2.228 ± 0.092	1.956 ± 0.081	1.716 ± 0.071	1.513 ± 0.062
x2 = 0.00558, x1 = 0.001414	2.61 ± 0.11	2.251 ± 0.093	1.984 ± 0.082	1.726 ± 0.071	1.534 ± 0.063
